Test system: KRAS-mutant PDC tumor spheroid with HUVEC/MSC, viability
Assay: Anticancer human tumor 327498-153-R-J2-PDC patient-derived uterine carcinosarcoma cell line growth inhibition [KRAS2]
Conditions: for viability, T/C: stronger effect = lower value; for IC50: curve of first compound
Method in brief: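 KRAS-mutant tumor cells were grown as spheroids with HUVEC endothelial cells and human MSCs as stroma. Targeted agents were tested alone and with KRAS pathway inhibitors. Doses started at or near clinical Cmax, or 10 microM, descending half-log.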

[1] = second compound 0.1 µM, first compound 0.0316 µM
[2] = second compound 0.1 µM, first compound 0.1 µM
[3] = second compound 0.1 µM, first compound 0.316 µM
[4] = second compound 0.1 µM, first compound 1 µM
[5] = second compound 0.1 µM, first compound 3.16 µM
[6] = second compound 0.1 µM, first compound 10 µM
[7] = second compound 0.316 µM, first compound 0.0316 µM
[8] = second compound 0.316 µM, first compound 0.1 µM
[9] = second compound 0.316 µM, first compound 0.316 µM
[10] = second compound 0.316 µM, first compound 1 µM
[11] = second compound 0.316 µM, first compound 3.16 µM
[12] = second compound 0.316 µM, first compound 10 µM
[13] = second compound 1 µM, first compound 0.0316 µM
[14] = second compound 1 µM, first compound 0.1 µM
[15] = second compound 1 µM, first compound 0.316 µM
[16] = second compound 1 µM, first compound 1 µM
[17] = second compound 1 µM, first compound 3.16 µM
[18] = second compound 1 µM, first compound 10 µM
[19] = second compound 3.16 µM, first compound 0.0316 µM
[20] = second compound 3.16 µM, first compound 0.1 µM
[21] = second compound 3.16 µM, first compound 0.316 µM
[22] = second compound 3.16 µM, first compound 1 µM
[23] = second compound 3.16 µM, first compound 3.16 µM
[24] = second compound 3.16 µM, first compound 10 µM
[25] = second compound 10 µM, first compound 0.0316 µM
[26] = second compound 10 µM, first compound 0.1 µM
[27] = second compound 10 µM, first compound 0.316 µM
[28] = second compound 10 µM, first compound 1 µM
[29] = second compound 10 µM, first compound 3.16 µM
[30] = second compound 10 µM, first compound 10 µM
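Also: spheroids exposed to agents for seven days before reading.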
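For viability, T/C in this document: 100% = DMSO vehicle wells so lower means fewer viable cells.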

## CC1COCCN1c1cc(-c2ccnn2C)c2ccnc(-c3ccn[nH]3)c2n1 (centres undefined)
Compound 0.1 µM
  viability, T/C: 16.4% [middle of 5 runs]
Compound 0.316 µM
  viability, T/C: 6.37% [middle of 5 runs]
Compound 1 µM
  viability, T/C: 5.03% [middle of 5 runs]
Compound 3.16 µM
  viability, T/C: 4.84% [middle of 5 runs]

## O=C(c1cc(Cc2n[nH]c(=O)c3ccccc23)ccc1F)N1CCN(C(=O)C2CC2)CC1 + CNCc1ccccc1-c1csc(C(C)Nc2nc(C)nc3cc(OC)c(OC)cc23)c1
Second compound 0.1 µM
  IC50: 2060 nM
Second compound 0.316 µM
  IC50: 1810 nM
Second compound 1 µM
  IC50: 1750 nM
Second compound 3.16 µM
  IC50: 411 nM
Second compound 10 µM
  IC50: < 31.6 nM
[1]
  viability, T/C: 83.4%
[2]
  viability, T/C: 80.3%
[3]
  viability, T/C: 82.8%
[4]
  viability, T/C: 73.6%
[5]
  viability, T/C: 36.1%
[6]
  viability, T/C: 19.2%
[7]
  viability, T/C: 86.6%
[8]
  viability, T/C: 87.4%
[9]
  viability, T/C: 76.7%
[10]
  viability, T/C: 69.5%
[11]
  viability, T/C: 32.4%
[12]
  viability, T/C: 19.1%
[13]
  viability, T/C: 90.8%
[14]
  viability, T/C: 81.8%
[15]
  viability, T/C: 81.3%
[16]
  viability, T/C: 66.3%
[17]
  viability, T/C: 33.2%
[18]
  viability, T/C: 19.1%
[19]
  viability, T/C: 57.7%
[20]
  viability, T/C: 67.8%
[21]
  viability, T/C: 62%
[22]
  viability, T/C: 0.7%
[23]
  viability, T/C: 25.9%
[24]
  viability, T/C: 0.17%
[25]
  viability, T/C: 2.32%
[26]
  viability, T/C: 0.2%
[27]
  viability, T/C: 1.62%
[28]
  viability, T/C: 0.19%
[29]
  viability, T/C: 0.15%
[30]
  viability, T/C: 1.22%

## Cn1nccc1Nc1nccc(-c2cc3c(s2)C(C)(C)N(CCN2CCOCC2)C3=O)n1 + C=CC(=O)N1CCN(c2nc(=O)n(-c3c(C)ccnc3C(C)C)c3nc(-c4c(O)cccc4F)c(F)cc23)C(C)C1
Second compound 0.1 µM
  IC50: 1400 nM
Second compound 0.316 µM
  IC50: 2240 nM
Second compound 1 µM
  IC50: 3120 nM
Second compound 3.16 µM
  IC50: 925 nM
Second compound 10 µM
  IC50: < 31.6 nM
[1]
  viability, T/C: 60.7%
[2]
  viability, T/C: 61.5%
[3]
  viability, T/C: 55.8%
[4]
  viability, T/C: 54.8%
[5]
  viability, T/C: 41.8%
[6]
  viability, T/C: 36.5%
[7]
  viability, T/C: 55.7%
[8]
  viability, T/C: 63.8%
[9]
  viability, T/C: 55.1%
[10]
  viability, T/C: 54%
[11]
  viability, T/C: 46.6%
[12]
  viability, T/C: 42.2%
[13]
  viability, T/C: 63%
[14]
  viability, T/C: 56.3%
[15]
  viability, T/C: 60.9%
[16]
  viability, T/C: 55.2%
[17]
  viability, T/C: 49.1%
[18]
  viability, T/C: 42.4%
[19]
  viability, T/C: 60.5%
[20]
  viability, T/C: 59.3%
[21]
  viability, T/C: 50.8%
[22]
  viability, T/C: 49.6%
[23]
  viability, T/C: 48.3%
[24]
  viability, T/C: 40.5%
[25]
  viability, T/C: 49.9%
[26]
  viability, T/C: 47.8%
[27]
  viability, T/C: 45.3%
[28]
  viability, T/C: 37.7%
[29]
  viability, T/C: 41.1%
[30]
  viability, T/C: 29.3%

— PubChem BioAssay AID1963867 (Molecular Pharmacology Branch, DTP, NCI, 2024)
